Patent publication US20100197789A1, “ANTI-OBESITY AGENT AND USE THEREOF” (National University Corporation Nagoya University, priority 2006, published 2010)

Assays:
Type in all cases: in vivo, mouse
db/db mice [1] = experiment: Food intake amount and body weight, 5 week-continuous oral administration in drinking water, db/db mice; conditions: for body weight increase / food intake amount: oral, 5 weeks
Protocol: (§1) 5 week-old male C57BL/KsJ-db/db mice (db/db mice: body weight 19 to 25 g, Japan SLC, Inc.) were purchased and individually fed in tip cages. For the db/db mice, normal pellet diet (CE-2) was administered under free water intake and free food intake. A body weight and a food intake amount over 24 hours were measured every day from the start of feeding. On day 3 after the start of feeding, blood was taken from an orbit after 6 hour-fasting and a blood glucose level and a blood insulin concentration were measured. The db/db mice were divided into three groups (10 mice per each group) so that a body weight, a 24 hour-food intake amount, a blood glucose level, and a blood insulin concentration were equal, and defined to be a control group, a low concentration baclofen treated group, and a high concentration baclofen treated group. After division into the groups, from day 5 after the start of feeding, (±)-baclofen was dissolved in drinking water and 5 week-continuous oral administration to the baclofen treated groups was started. (±)-baclofen was dissolved in drinking water at a concentration of 1.1 mg/dl in the low concentration treated group and at a concentration of 2.7 mg/dl in the high concentration treated group. A food intake amount and a body weight were measured over time during the period of 5 week-administration of (±)-baclofen, blood was taken after the end of the 5-week administration, and the db/db mice were sacrificed by cervical luxation. Brains, epididymal white adipose tissues, subcutaneous white adipose tissues and brown adipose tissues were surgically removed. The brains and brown adipose tissues were frozen in dry ice and liquid nitrogen immediately after the removal and then preserved at −80° C. The epididymal white adipose tissues and subcutaneous white adipose tissues were measured in weights, and then fixed in 4% formaldehyde and preserved at 4° C.
5 week-old male C57BL/KsJ-db/db mice (db/db mice: body weight 19 to 25 g, Japan SLC, Inc.) were purchased and individually fed in tip cages. For the db/db mice, normal pellet diet (CE-2) was administered under free water intake and free food intake. A body weight and a food intake amount over 24 hours were measured everyday from the start of feeding. On day 3 after the start of feeding, blood was taken from an orbit after 6 hour-fasting and a blood glucose level and a blood insulin concentration were measured. […] After division into the groups, from day 5 after the start of feeding, R-baclofen and S-baclofen were dissolved in drinking water and 5 week-continuous oral administration was started. […] A food intake amount and a body weight were measured over time, and a rectal temperature was measured 5 weeks after the start of the administration. Blood was taken after the 5-week administration of baclofen, and the db/db mice were sacrificed by cervical luxation.
5 week-old male C57BL/KsJ-db/db mice (db/db mice: body weight 19 to 25 g, Japan SLC, Inc.) were purchased and individually fed in tip cages. Normal pellet diet (CE-2) was administered to the db/db mice under free water intake and free food intake. A body weight and a food intake amount over 24 hours were measured every day from the start of feeding. On day 3 after the start of feeding, blood was taken from an orbit after 6 hour-fasting, and a blood glucose level and a blood insulin concentration were measured. The db/db mice were divided into five groups (10 mice per each group) so that a body weight, a 24 hour-food intake amount, a blood glucose level, and a blood insulin concentration were equal, and defined to be a control group and baclofen treated groups. (±)-baclofen was dissolved in drinking water at respective concentrations of 4×10^−6 M, 10×10^−6 M, 40×10^−6 M, and 100×10^−6 M, and continuously orally administered to the baclofen treated groups for 5 weeks. A food intake amount, a body weight and a water-drinking amount were measured over time during the period of 5 week-administration of (±)-baclofen. […]

NPY mRNA [2] = experiment: In situ hybridization, NPY mRNA in hypothalamic arcuate nucleus, DIO mice; conditions: (±)-baclofen oral 5 weeks
Protocol: A hypothalamic section with a thickness of 12 μm was prepared from the brain preserved at −80° C. by using a cryostat and stuck to a MAS coat slide and then in situ hybridization was performed. For a label of NPY mRNA and POMC mRNA probes, ^35S was used. The hypothalamic section was pretreated by using triethanolamine, ethanol and the like, and then 12 hour-hybridization was performed at 55° C. After the hybridization, the hypothalamic section was treated by washing with SSC, RNase, etc. After development to a film, the mRNA expression strength was assayed by using the NIH image.
(±)-baclofen was orally administered to DIO mice for 5 weeks according to the above method, and then the DIO mice were sacrificed. A brain was surgically removed, and changes in expression amounts of NPY mRNA and POMC mRNA in the hypothalamic arcuate nucleus were examined by using an in situ hybridization method.

NPY mRNA [3] = experiment: In situ hybridization, NPY mRNA in hypothalamic arcuate nucleus, db/db mice; conditions: after 5 weeks, 1.1 and 2.7 mg/dl in drinking water, NIH image quantitation
Protocol: as §1, with “After division into the groups, from day 5 after the start of feeding, (±)-baclofen was dissolved in drinking water and 5 week-continuous oral administration to the baclofen treated groups was started. (±)-baclofen was dissolved in drinking water at a concentration of 1.1 mg/dl in the low concentration treated group and at a concentration of 2.7 mg/dl in the high concentration treated group.” left out, “Brains, epididymal white adipose tissues, subcutaneous white adipose tissues and brown adipose tissues were surgically removed. The brains and brown adipose tissues were frozen in dry ice and liquid nitrogen immediately after the removal and then preserved at −80° C.” left out, “C. […]” for “C.”

POMC mRNA = experiment: In situ hybridization, POMC mRNA in hypothalamic arcuate nucleus, db/db mice; conditions: after 5 weeks, 1.1 and 2.7 mg/dl in drinking water, NIH image quantitation
Protocol: as §1, with “After division into the groups, from day 5 after the start of feeding, (±)-baclofen was dissolved in drinking water and 5 week-continuous oral administration to the baclofen treated groups was started. (±)-baclofen was dissolved in drinking water at a concentration of 1.1 mg/dl in the low concentration treated group and at a concentration of 2.7 mg/dl in the high concentration treated group.” left out, “Brains, epididymal white adipose tissues, subcutaneous white adipose tissues and brown adipose tissues were surgically removed. The brains and brown adipose tissues were frozen in dry ice and liquid nitrogen immediately after the removal and then preserved at −80° C.” left out, “C. […]” for “C.”

db/db mice [4] = experiment: Histological study of adipose tissue (weights, fat cell size), db/db mice; conditions: after 5 week-administration, 1.1 and 2.7 mg/dl in drinking water
Protocol: as §1, with “4° C. […]” for “4° C.”

[5] = (±)-baclofen 1.1 mg/dl (low) and 2.7 mg/dl (high) in drinking water, vs control
[6] = (±)-baclofen 1.1 and 2.7 mg/dl in drinking water, continued until end of experiment
[7] = (±)-baclofen 4×10^−6 M in drinking water (roughly 0.2 mg/kg/day)
[8] = (±)-baclofen 10×10^−6 M in drinking water (roughly 0.5 mg/kg/day)
[9] = (±)-baclofen 40×10^−6 M in drinking water (roughly 2 mg/kg/day)
[10] = (±)-baclofen 100×10^−6 M in drinking water (roughly 5 mg/kg/day)

Question: Which body weight increase (db/db mice [1]; [5]) does the source give for `NCC(CC(=O)O)c1ccc(Cl)cc1` (racemic) [(±)-baclofen, (RS)-4-amino-3-(4-chlorophenyl)butanoic acid] here?
Answer: significant body weight increase suppression

Question: And the food intake amount (db/db mice [1]; [5])?
Answer: significantly suppressed

Question: And the “time after start of administration from which body weight increase suppression was significant” value (db/db mice [1]; [6])?
Answer: 1 week

Question: What about the “time after start of administration from which food intake suppression was significant” value (db/db mice [1]; [6]) of the same molecule?
Answer: 1 week

Question: What about the “time after start of administration from which body weight increase suppression was significant” value (db/db mice [1]; [7]) of the same molecule?
Answer: 4 weeks

Question: And the “time after start of administration from which food intake suppression was significant” value (db/db mice [1]; [7])?
Answer: 4 weeks

Question: What about the body weight increase (db/db mice [1]; [7]) of the same molecule?
Answer: Significant suppression

Question: What about the food intake amount (db/db mice [1]; [7]) of the same molecule?
Answer: Significant suppression

Question: And the “time after start of administration from which body weight increase suppression was significant” value (db/db mice [1]; [8])?
Answer: 2 weeks

Question: And the “time after start of administration from which food intake suppression was significant” value (db/db mice [1]; [8])?
Answer: 2 weeks

Question: And the body weight increase (db/db mice [1]; [8])?
Answer: Significant suppression

Question: What about the food intake amount (db/db mice [1]; [8]) of the same molecule?
Answer: Significant suppression

Question: And the “time after start of administration from which body weight increase suppression was significant” value (db/db mice [1]; [9])?
Answer: 1 week

Question: What about the “time after start of administration from which food intake suppression was significant” value (db/db mice [1]; [9]) of the same molecule?
Answer: 1 week

Question: And the body weight increase (db/db mice [1]; [9])?
Answer: significantly suppressed

Question: What about the food intake amount (db/db mice [1]; [9]) of the same molecule?
Answer: significantly suppressed

Question: What about the “time after start of administration from which body weight increase suppression was significant” value (db/db mice [1]; [10]) of the same molecule?
Answer: 1 week

Question: What about the “time after start of administration from which food intake suppression was significant” value (db/db mice [1]; [10]) of the same molecule?
Answer: 1 week

Question: And the body weight increase (db/db mice [1]; [10])?
Answer: significantly suppressed

Question: And the food intake amount (db/db mice [1]; [10])?
Answer: significantly suppressed

Question: And the “expression of NPY mRNA in the hypothalamic arcuate nucleus” value (NPY mRNA [2])?
Answer: significantly suppressed

Question: What about the “expression of NPY mRNA in the hypothalamic arcuate nucleus” value (NPY mRNA [3]) of the same molecule?
Answer: significantly suppressed

Question: What about the “expression of POMC mRNA in the hypothalamic arcuate nucleus” value (POMC mRNA) of the same molecule?
Answer: significantly enhanced

Question: What about the “size of a fat cell (epididymal white adipose tissue, H-E stain)” value (db/db mice [4]) of the same molecule?
Answer: decreases

Question: And the “weight of epididymal white adipose tissues” value (db/db mice [4])?
Answer: Significant decreases

Question: And the “weight of subcutaneous white adipose tissue” value (db/db mice [4])?
Answer: no significant decrease
